Key:
[1] = liquid-liquid extraction from aqueous nitric solution, distribution coefficient D; type: physicochemical; settings: for D(distribution coefficient) 152-Eu: pH ≈0, 1 hour contacting
Method: In these examples, an evaluation takes place of the effectiveness of the calixarenes of table 1 for extracting plutonium, neptunium and americium, as well as europium (simulating all the trivalent lanthanides) of an aqueous solution containing one of these elements. The composition of the aqueous solution is as follows:
[…] Contacting takes place in a 20 ml polypropylene tube, which undergoes stirring. After 1 hour of contacting, the two phases are allowed to settle and the activity of each phase is counted by liquid scintillation or α and γ spectrometries.
The distribution coefficient D is then determined and this corresponds to the ratio of the activity of actinide in the organic phase to the activity of actinide in the aqueous phase.

[2] = supported liquid membrane transport into aqueous reextraction solution; type: physicochemical
Excerpt: These examples use the second embodiment of the process according to the invention for extracting europium, neptunium, plutonium and americium from aqueous solutions having the same compositions as those used in examples 7 to 16. These examples use the device shown in the attached drawing.
This device comprises an enclosure 1 subdivided into two compartents 3 and 5 by a supported liquid membrane 7, constituted by a microporous polypropylene membrane marketed under the name CELGARD 2500 and having the following characteristics:
membrane thickness: 0.025 mm.
The pores of this membrane are filled with an organic phase constituted by nitrophenylhexyl ether incorporating 0.001 or 0.0001M of calixarene.
Compartment 3 contains 50 ml of aqueous solution (NaNO3 :4 mole/l, HNO3 : 1mole/l with Eu, Np, Pu, Am); and compartment 5 contains 50ml of an aqueous reextraction solution constituted by an aqueous solution with 1 mole/l of methylene diphosphonic acid.
The two solutions are stirred and the initial activity of the solution of compartment 3 is determined, followed by the activity of the aqueous reextraction solution of compartment 5 by liquid α spectrometry and the operation is continued for one day. From it is deduced the percentage of neptunium, plutonium, americium and europium recovered in the aqueous reextraction solution after 6 and 24 h.
The calixarenes used, the permeability (in cm h^-1) of the membrane to Np and Pu, as well as the %, at the end of 6 and 24 h,of Eu, Am, Np and Pu recovered are given in table 3.

[3] = CMPO 0.01M in nitrophenyl hexyl ether, comparative
[4] = 6 h, supported liquid membrane, 0.001 or 0.0001M calixarene (CMPO 10^-2 M)
[5] = 24 h, supported liquid membrane, 0.001 or 0.0001M calixarene (CMPO 10^-2 M)
[6] = CELGARD 2500 membrane, nitrophenylhexyl ether with 0.001 or 0.0001M calixarene (CMPO 10^-2 M), reextraction 1 mole/l methylene diphosphonic acid
[7] = calixarene 0.0005M, aqueous HNO3, NaNO3 4 mole/l, 1 hour
[8] = calixarene 0.0001M in nitrophenyloctylether, aqueous HNO3, NaNO3 4 mole/l, 1 hour, * = precipitation
[9] = calixarene 0.001M in nitrophenyloctylether, aqueous HNO3, NaNO3 4 mole/l
[10] = calixarene 0.001M in nitrophenyloctylether, aqueous HNO3, NaNO3 4 mole/l, 1 hour, * = precipitation

| SMILES | Percentage transported in 6 h. 237 Np [2, 4] [%] | Percentage transported in 6 h. 239 Pu [2, 4] [%] | Percentage transported in 6 h. 241 Am [2, 4] [%] | Percentage of 239Pu transported in 24 h [2, 5] [%] | Percentage transported in 24 h. 237 Np [2, 5] [%] | Percentage transported in 24 h. 241 Am [2, 5] [%] | Permeability (cm/h) 237 Np [2, 6] [cm/h] | Permeability (cm/h) 239 Pu [2, 6] [cm/h] | Permeability (cm/h) 241 Am [2, 6] [cm/h] | D(distribution coefficient) 152-Eu [1, 9] | D(distribution coefficient) 237-Np [1, 10] | D(distribution coefficient) 239-Pu [1, 10] | D(distribution coefficient) 241-Am [1, 10] | further results |
| --- | --- | --- | --- | --- | --- | --- | --- | --- | --- | --- | --- | --- | --- | --- |
| CCCCCCCCP(=O)(CC(=O)N(CC(C)C)CC(C)C)c1ccccc1 (centres unmarked) [CMPO, reference compound] | 50 | 99 | 9.8 | 100 | 68 | 45 | 0.74 | 3.44 | 0.17 |  |  |  |  | D(distribution coefficient) 237-Np [1, 3]: 0.85; D(distribution coefficient) 239-Pu [1, 3]: 22; D(distribution coefficient) 241-Am [1, 3]: 1.2 |
| CCCCC(CC)COc1c2cc(NC(=O)CP(=O)(c3ccccc3)c3ccccc3)cc1Cc1cc(NC(=O)CP(=O)(c3ccccc3)c3ccccc3)cc(c1OCC(CC)CCCC)Cc1cc(NC(=O)CP(=O)(c3ccccc3)c3ccccc3)cc(c1OCC(CC)CCCC)Cc1cc(NC(=O)CP(=O)(c3ccccc3)c3ccccc3)cc(c1OCC(CC)CCCC)C2 (centres unmarked) [Compound 10] | 19.8 | 53.5 | 27.8 | 76.6 | 30.4 | 62.4 | 0.6 | 2 | 0.5 |  |  |  |  | D(distribution coefficient) 152-Eu ([1]; calixarene 0.0005M, aqueous HNO3, NaNO3 4 mole/l): 1.5; D(distribution coefficient) 237-Np [1, 7]: 2; D(distribution coefficient) 239-Pu [1, 7]: 20; D(distribution coefficient) 241-Am [1, 7]: 4.5 |
| CCCCCCCCCCCCCCCCCCOc1c2cc(NC(=O)CP(=O)(c3ccccc3)c3ccccc3)cc1Cc1cc(NC(=O)CP(=O)(c3ccccc3)c3ccccc3)cc(c1OCCCCCCCCCCCCCCCCCC)Cc1cc(NC(=O)CP(=O)(c3ccccc3)c3ccccc3)cc(c1OCCCCCCCCCCCCCCCCCC)Cc1cc(NC(=O)CP(=O)(c3ccccc3)c3ccccc3)cc(c1OCCCCCCCCCCCCCCCCCC)C2 [Compound 5] |  |  |  |  |  |  |  |  |  |  |  |  |  | D(distribution coefficient) 237-Np [1, 8]: 1.5; D(distribution coefficient) 239-Pu [1, 8]: 24; D(distribution coefficient) 241-Am [1, 8]: 21 |
| CCCCCCCCCCOc1c2cc(NC(=O)CP(=O)(c3ccccc3)c3ccccc3)cc1Cc1cc(NC(=O)CP(=O)(c3ccccc3)c3ccccc3)cc(c1OCCCCCCCCCC)Cc1cc(NC(=O)CP(=O)(c3ccccc3)c3ccccc3)cc(c1OCCCCCCCCCC)Cc1cc(NC(=O)CP(=O)(c3ccccc3)c3ccccc3)cc(c1OCCCCCCCCCC)C2 [Compound 2, tetra-O-decyl tetrakis (diphenyl phosphinoxidoacetamido)calix[4]arene] | 73 | 82 | 95.5 | 83 | 80 | 100 | 3 | 3.6 | 5 | > 100 | 2 | 90 | 100 |  |
| CCCCCCCCCCCCOc1c2cc(NC(=O)CP(=O)(c3ccccc3)c3ccccc3)cc1Cc1cc(NC(=O)CP(=O)(c3ccccc3)c3ccccc3)cc(c1OCCCCCCCCCCCC)Cc1cc(NC(=O)CP(=O)(c3ccccc3)c3ccccc3)cc(c1OCCCCCCCCCCCC)Cc1cc(NC(=O)CP(=O)(c3ccccc3)c3ccccc3)cc(c1OCCCCCCCCCCCC)C2 [Compound 1, 25, 26, 27, 28 tetradodecyloxy-tetra-5, 11, 17, 23-(diphenylphosphinoxidoacetamido) calix[4]arene] | 56 | 84 | 97 | 85 | 66 | 100 | 1.35 | 3.4 | 4.9 |  | 4 | > 100 | > 100 | Percentage transported in 6 h. 152 Eu [2, 4]: 95%; Percentage transported in 24 h. 152 Eu [2, 5]: 100%; Permeability (cm/h) 152 Eu [2, 6]: 2.75 cm/h |
| CCCCCCCCCCCCCCCCOc1c2cc(NC(=O)CP(=O)(c3ccccc3)c3ccccc3)cc1Cc1cc(NC(=O)CP(=O)(c3ccccc3)c3ccccc3)cc(c1OCCCCCCCCCCCCCCCC)Cc1cc(NC(=O)CP(=O)(c3ccccc3)c3ccccc3)cc(c1OCCCCCCCCCCCCCCCC)Cc1cc(NC(=O)CP(=O)(c3ccccc3)c3ccccc3)cc(c1OCCCCCCCCCCCCCCCC)C2 [Compound 4, tetra-O-hexadecyl tetrakis(diphenyl-phosphinaxidoacetamido)calix[4]arene] | 21 | 54 | 3 |  |  |  | 0.46 | 1.4 | 0.08 |  |  |  |  | D(distribution coefficient) 237-Np [1, 8]: 1.1; D(distribution coefficient) 239-Pu [1, 8]: 27; D(distribution coefficient) 241-Am [1, 8]: 27 |
| CCCCCCCCOc1c2cc(NC(=O)CP(=O)(c3ccccc3)c3ccccc3)cc1Cc1cc(NC(=O)CP(=O)(c3ccccc3)c3ccccc3)cc(c1OC)Cc1cc(NC(=O)CP(=O)(c3ccccc3)c3ccccc3)cc(c1OCCCCCCCC)Cc1cc(NC(=O)CP(=O)(c3ccccc3)c3ccccc3)cc(c1OC)C2 [Compound 9] | 52.4 | 84.1 | 91.3 | 86 | 75.2 | 100 | 1.6 | 4.2 | 2.9 | > 100 | 2 | 110 | 280 |  |
| CCCCCCCCCCCCCCCCCCOc1c2cc(NC(=O)CP(=O)(c3ccccc3)c3ccccc3)cc1Cc1cc(NC(=O)CP(=O)(c3ccccc3)c3ccccc3)cc(c1OC)Cc1cc(NC(=O)CP(=O)(c3ccccc3)c3ccccc3)cc(c1OCCCCCCCCCCCCCCCCCC)Cc1cc(NC(=O)CP(=O)(c3ccccc3)c3ccccc3)cc(c1OC)C2 [Compound 7] | 42.7 | 99.7 | 92.6 | 100 | 59.4 | 99.3 | 1.3 | 7 | 3.2 | > 100 | 3 | 170 | 250 |  |
| CCCCCOc1c2cc(NC(=O)CP(=O)(c3ccccc3)c3ccccc3)cc1Cc1cc(NC(=O)CP(=O)(c3ccccc3)c3ccccc3)cc(c1OCCCCC)Cc1cc(NC(=O)CP(=O)(c3ccccc3)c3ccccc3)cc(c1OCCCCC)Cc1cc(NC(=O)CP(=O)(c3ccccc3)c3ccccc3)cc(c1OCCCCC)C2 [Compound 8] | 8.5 | 79.6 | 99 | 80 | 14.5 | 100 | < 0.2 | 3.6 | 3.4 | > 100 | 2 | 100 | 250 |  |
